Test results from ChEMBL document CHEMBL1145498, “A systematic interaction map of validated kinase inhibitors with Ser/Thr kinases” (Proc Natl Acad Sci U S A, 2007).

The compounds below were run against 5'-AMP-activated protein kinase catalytic subunit alpha-2 (Homo sapiens) (UniProt P54646).
Sequence of 5'-AMP-activated protein kinase catalytic subunit alpha-2 (Homo sapiens) (P54646 whole entry, looked up): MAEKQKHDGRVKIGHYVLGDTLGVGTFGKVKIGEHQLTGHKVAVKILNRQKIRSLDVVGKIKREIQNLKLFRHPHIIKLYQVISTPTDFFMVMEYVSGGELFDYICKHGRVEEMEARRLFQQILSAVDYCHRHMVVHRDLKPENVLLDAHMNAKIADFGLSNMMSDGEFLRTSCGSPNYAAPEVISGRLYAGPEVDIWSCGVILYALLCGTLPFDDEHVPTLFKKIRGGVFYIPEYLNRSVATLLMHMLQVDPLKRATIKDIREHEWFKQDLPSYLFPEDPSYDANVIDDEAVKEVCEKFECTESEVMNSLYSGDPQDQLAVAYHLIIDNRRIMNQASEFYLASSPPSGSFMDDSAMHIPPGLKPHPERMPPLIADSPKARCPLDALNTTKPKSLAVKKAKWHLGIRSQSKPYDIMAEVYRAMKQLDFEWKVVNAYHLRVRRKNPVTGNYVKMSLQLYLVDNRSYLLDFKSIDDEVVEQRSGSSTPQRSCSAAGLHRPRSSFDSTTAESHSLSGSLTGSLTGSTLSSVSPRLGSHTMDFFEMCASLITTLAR

ΔTm	SMILES
0 °C	CCOc1cc(/C=C(\C#N)C(N)=O)cc(CSc2ccccc2)c1O
-0.7 °C	Ic1cccc(CSc2nnc(-c3ccncc3)o2)c1
-0.8 °C	CC(C)c1cc(/C=C(\C#N)C(=O)NCCCc2ccccc2)cc(C(C)C)c1O

Each compound was assayed against Calcium/calmodulin-dependent protein kinase type II subunit alpha (Homo sapiens) (UniProt Q9UQM7).
Sequence of Calcium/calmodulin-dependent protein kinase type II subunit alpha (Homo sapiens) (Q9UQM7 whole entry): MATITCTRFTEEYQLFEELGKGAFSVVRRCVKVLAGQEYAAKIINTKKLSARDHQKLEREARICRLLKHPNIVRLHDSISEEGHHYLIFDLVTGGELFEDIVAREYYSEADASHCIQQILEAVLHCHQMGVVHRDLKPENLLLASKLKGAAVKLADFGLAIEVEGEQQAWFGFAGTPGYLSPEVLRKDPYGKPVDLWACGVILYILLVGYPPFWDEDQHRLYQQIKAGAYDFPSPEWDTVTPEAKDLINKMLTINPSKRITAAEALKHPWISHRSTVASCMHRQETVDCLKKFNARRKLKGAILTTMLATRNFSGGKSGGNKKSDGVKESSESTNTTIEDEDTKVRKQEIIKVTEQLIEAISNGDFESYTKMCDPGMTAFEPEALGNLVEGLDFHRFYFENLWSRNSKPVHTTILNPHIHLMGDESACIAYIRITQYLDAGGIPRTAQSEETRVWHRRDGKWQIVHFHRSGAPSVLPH

ΔTm	SMILES
-0.2 °C	CCOc1cc(/C=C(\C#N)C(N)=O)cc(CSc2ccccc2)c1O
-0.6 °C	Ic1cccc(CSc2nnc(-c3ccncc3)o2)c1
0.6 °C	CC(C)c1cc(/C=C(\C#N)C(=O)NCCCc2ccccc2)cc(C(C)C)c1O

What follows are compounds tested against T1, Calcium/calmodulin-dependent protein kinase type IV (Homo sapiens) (UniProt Q16566).
T1 sequence (whole entry): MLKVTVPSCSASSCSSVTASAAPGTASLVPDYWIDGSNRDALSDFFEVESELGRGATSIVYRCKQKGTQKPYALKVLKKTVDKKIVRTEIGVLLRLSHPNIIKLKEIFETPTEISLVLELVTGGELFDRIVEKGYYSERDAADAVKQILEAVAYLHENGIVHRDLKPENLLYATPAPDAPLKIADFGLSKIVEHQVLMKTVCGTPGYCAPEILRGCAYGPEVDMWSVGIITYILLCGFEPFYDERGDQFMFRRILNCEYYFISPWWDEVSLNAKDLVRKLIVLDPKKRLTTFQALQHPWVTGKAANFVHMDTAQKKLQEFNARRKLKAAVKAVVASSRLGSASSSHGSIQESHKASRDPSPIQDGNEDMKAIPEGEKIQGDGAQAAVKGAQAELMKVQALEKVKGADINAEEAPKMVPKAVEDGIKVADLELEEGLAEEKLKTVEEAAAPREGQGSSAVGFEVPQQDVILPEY

ΔTm	SMILES
0.1 °C	CCOc1cc(/C=C(\C#N)C(N)=O)cc(CSc2ccccc2)c1O
-0.5 °C	Ic1cccc(CSc2nnc(-c3ccncc3)o2)c1
1.2 °C	CC(C)c1cc(/C=C(\C#N)C(=O)NCCCc2ccccc2)cc(C(C)C)c1O

These compounds were tested against Calcium/calmodulin-dependent protein kinase kinase 2 (Homo sapiens, UniProt Q96RR4).
Sequence of Calcium/calmodulin-dependent protein kinase kinase 2 (Q96RR4 2-588 limits assumed): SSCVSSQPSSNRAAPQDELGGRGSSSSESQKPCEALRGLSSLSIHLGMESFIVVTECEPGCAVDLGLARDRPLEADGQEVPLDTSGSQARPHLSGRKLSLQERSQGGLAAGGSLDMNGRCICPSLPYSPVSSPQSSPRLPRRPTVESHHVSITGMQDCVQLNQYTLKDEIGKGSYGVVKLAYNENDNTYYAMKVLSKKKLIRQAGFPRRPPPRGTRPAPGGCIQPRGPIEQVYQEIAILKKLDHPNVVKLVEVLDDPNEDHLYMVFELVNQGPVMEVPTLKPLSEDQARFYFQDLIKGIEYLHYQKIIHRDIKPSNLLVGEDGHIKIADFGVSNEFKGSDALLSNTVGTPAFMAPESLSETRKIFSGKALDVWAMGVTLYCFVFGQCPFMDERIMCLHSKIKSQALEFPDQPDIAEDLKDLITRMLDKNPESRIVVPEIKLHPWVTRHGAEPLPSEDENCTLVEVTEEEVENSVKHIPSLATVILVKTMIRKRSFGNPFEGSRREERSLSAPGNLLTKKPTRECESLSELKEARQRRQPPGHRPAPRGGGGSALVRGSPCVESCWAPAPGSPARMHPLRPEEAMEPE

ΔTm	SMILES
-0.1 °C	CCOc1cc(/C=C(\C#N)C(N)=O)cc(CSc2ccccc2)c1O
-0.6 °C	Ic1cccc(CSc2nnc(-c3ccncc3)o2)c1
1 °C	CC(C)c1cc(/C=C(\C#N)C(=O)NCCCc2ccccc2)cc(C(C)C)c1O

What follows are compounds tested against Serine/threonine-protein kinase Chk2 (Homo sapiens, UniProt O96017).

ΔTm	SMILES
0 °C	CCOc1cc(/C=C(\C#N)C(N)=O)cc(CSc2ccccc2)c1O
-0.9 °C	Ic1cccc(CSc2nnc(-c3ccncc3)o2)c1
-0.1 °C	CC(C)c1cc(/C=C(\C#N)C(=O)NCCCc2ccccc2)cc(C(C)C)c1O

The compounds below were run against Dual specificity protein kinase CLK1 (Homo sapiens) (UniProt P49759).
Sequence of Dual specificity protein kinase CLK1 (Homo sapiens) (P49759 whole entry, looked up): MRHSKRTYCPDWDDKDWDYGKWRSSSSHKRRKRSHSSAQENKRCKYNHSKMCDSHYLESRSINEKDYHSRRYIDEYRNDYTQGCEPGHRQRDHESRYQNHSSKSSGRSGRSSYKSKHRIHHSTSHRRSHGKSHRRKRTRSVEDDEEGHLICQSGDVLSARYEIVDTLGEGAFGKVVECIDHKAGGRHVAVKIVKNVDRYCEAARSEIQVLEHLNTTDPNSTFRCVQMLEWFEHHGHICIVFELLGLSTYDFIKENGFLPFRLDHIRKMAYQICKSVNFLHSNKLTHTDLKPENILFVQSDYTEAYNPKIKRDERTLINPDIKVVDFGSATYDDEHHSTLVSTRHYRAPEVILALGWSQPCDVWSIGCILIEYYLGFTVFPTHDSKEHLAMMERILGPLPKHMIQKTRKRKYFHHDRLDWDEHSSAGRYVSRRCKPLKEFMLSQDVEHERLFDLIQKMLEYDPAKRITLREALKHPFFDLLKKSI

ΔTm	SMILES
0 °C	CCOc1cc(/C=C(\C#N)C(N)=O)cc(CSc2ccccc2)c1O
1.7 °C	Ic1cccc(CSc2nnc(-c3ccncc3)o2)c1
2.8 °C	CC(C)c1cc(/C=C(\C#N)C(=O)NCCCc2ccccc2)cc(C(C)C)c1O

Each compound was assayed against Casein kinase I isoform gamma-2 (Homo sapiens) (UniProt P78368).
Sequence of Casein kinase I isoform gamma-2 (Homo sapiens) (P78368 whole entry, looked up, canonical isoform): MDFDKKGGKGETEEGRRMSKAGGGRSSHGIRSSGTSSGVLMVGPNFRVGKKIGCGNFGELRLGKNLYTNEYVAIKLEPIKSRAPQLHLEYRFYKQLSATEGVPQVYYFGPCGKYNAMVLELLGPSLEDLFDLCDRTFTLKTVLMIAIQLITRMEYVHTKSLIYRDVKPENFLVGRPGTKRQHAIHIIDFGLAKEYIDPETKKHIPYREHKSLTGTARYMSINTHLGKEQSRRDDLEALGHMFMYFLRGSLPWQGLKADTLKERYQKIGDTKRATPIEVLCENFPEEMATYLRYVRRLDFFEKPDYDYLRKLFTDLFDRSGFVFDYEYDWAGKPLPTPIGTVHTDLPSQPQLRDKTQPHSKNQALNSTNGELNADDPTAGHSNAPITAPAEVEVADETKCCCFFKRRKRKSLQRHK

ΔTm	SMILES
0.7 °C	CCOc1cc(/C=C(\C#N)C(N)=O)cc(CSc2ccccc2)c1O
0.5 °C	Ic1cccc(CSc2nnc(-c3ccncc3)o2)c1
0.5 °C	CC(C)c1cc(/C=C(\C#N)C(=O)NCCCc2ccccc2)cc(C(C)C)c1O

Each compound was assayed against Casein kinase I isoform gamma-3 (Homo sapiens) (UniProt Q9Y6M4).
Sequence of Casein kinase I isoform gamma-3 (Homo sapiens) (Q9Y6M4 whole entry, looked up, canonical isoform): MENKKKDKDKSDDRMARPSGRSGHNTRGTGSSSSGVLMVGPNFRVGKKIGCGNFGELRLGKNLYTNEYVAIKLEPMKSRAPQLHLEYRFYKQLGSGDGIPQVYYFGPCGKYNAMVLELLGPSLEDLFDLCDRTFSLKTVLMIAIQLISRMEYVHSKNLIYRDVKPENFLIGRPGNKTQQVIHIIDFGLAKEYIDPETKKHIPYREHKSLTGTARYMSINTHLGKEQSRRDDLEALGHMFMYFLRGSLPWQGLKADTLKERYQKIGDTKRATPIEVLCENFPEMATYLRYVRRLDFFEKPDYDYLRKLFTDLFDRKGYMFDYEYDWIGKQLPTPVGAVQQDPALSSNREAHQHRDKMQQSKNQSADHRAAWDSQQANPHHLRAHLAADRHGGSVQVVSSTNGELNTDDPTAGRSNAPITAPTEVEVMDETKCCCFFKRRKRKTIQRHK

ΔTm	SMILES
0.4 °C	CCOc1cc(/C=C(\C#N)C(N)=O)cc(CSc2ccccc2)c1O
0.4 °C	Ic1cccc(CSc2nnc(-c3ccncc3)o2)c1
0.7 °C	CC(C)c1cc(/C=C(\C#N)C(=O)NCCCc2ccccc2)cc(C(C)C)c1O

What follows are compounds tested against Tyrosine-protein kinase JAK1 (Homo sapiens) (UniProt P23458).

ΔTm	SMILES
4.3 °C	CCOc1cc(/C=C(\C#N)C(N)=O)cc(CSc2ccccc2)c1O
-0.3 °C	Ic1cccc(CSc2nnc(-c3ccncc3)o2)c1
0.1 °C	CC(C)c1cc(/C=C(\C#N)C(=O)NCCCc2ccccc2)cc(C(C)C)c1O

Each compound was assayed against T2, Dual specificity mitogen-activated protein kinase kinase 6 (Homo sapiens) (UniProt P52564).
T2 sequence (whole entry): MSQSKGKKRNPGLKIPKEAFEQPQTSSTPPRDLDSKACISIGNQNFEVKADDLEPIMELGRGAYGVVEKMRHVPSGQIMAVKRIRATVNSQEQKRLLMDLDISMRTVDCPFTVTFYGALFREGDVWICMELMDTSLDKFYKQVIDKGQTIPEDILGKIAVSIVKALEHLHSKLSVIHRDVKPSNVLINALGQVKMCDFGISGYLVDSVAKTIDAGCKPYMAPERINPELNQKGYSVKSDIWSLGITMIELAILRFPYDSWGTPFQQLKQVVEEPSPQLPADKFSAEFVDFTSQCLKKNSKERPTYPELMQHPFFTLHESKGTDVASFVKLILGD

ΔTm	SMILES
1.6 °C	CCOc1cc(/C=C(\C#N)C(N)=O)cc(CSc2ccccc2)c1O
0.3 °C	Ic1cccc(CSc2nnc(-c3ccncc3)o2)c1
0.3 °C	CC(C)c1cc(/C=C(\C#N)C(=O)NCCCc2ccccc2)cc(C(C)C)c1O

These compounds were tested against Mitogen-activated protein kinase 3 (Homo sapiens, UniProt P27361).

ΔTm	SMILES
0.2 °C	CCOc1cc(/C=C(\C#N)C(N)=O)cc(CSc2ccccc2)c1O
0.5 °C	Ic1cccc(CSc2nnc(-c3ccncc3)o2)c1
-0.1 °C	CC(C)c1cc(/C=C(\C#N)C(=O)NCCCc2ccccc2)cc(C(C)C)c1O

These compounds were tested against Serine/threonine-protein kinase Nek6 (Homo sapiens) (UniProt Q9HC98).

ΔTm	SMILES
-0.1 °C	CCOc1cc(/C=C(\C#N)C(N)=O)cc(CSc2ccccc2)c1O
-0.8 °C	Ic1cccc(CSc2nnc(-c3ccncc3)o2)c1
0.9 °C	CC(C)c1cc(/C=C(\C#N)C(=O)NCCCc2ccccc2)cc(C(C)C)c1O

Each compound was assayed against T3, 3-phosphoinositide-dependent protein kinase 1 (Homo sapiens) (UniProt O15530).
T3 sequence (whole entry): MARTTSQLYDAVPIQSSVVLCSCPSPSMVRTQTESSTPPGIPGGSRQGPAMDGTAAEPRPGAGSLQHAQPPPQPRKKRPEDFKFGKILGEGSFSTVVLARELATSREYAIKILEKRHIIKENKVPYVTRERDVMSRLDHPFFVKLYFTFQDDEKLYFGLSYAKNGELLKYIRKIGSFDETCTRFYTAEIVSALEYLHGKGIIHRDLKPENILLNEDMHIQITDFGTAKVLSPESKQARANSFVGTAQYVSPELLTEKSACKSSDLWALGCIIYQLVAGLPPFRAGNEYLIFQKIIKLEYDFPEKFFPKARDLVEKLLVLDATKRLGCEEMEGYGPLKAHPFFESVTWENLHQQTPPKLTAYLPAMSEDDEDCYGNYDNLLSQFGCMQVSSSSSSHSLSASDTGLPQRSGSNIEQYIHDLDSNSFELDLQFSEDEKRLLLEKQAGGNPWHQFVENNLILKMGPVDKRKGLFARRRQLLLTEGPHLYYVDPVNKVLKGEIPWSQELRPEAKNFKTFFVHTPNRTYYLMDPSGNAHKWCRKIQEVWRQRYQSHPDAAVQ

ΔTm	SMILES
0 °C	CCOc1cc(/C=C(\C#N)C(N)=O)cc(CSc2ccccc2)c1O
-0.6 °C	Ic1cccc(CSc2nnc(-c3ccncc3)o2)c1
-0.5 °C	CC(C)c1cc(/C=C(\C#N)C(=O)NCCCc2ccccc2)cc(C(C)C)c1O

The compounds below were run against cAMP-dependent protein kinase catalytic subunit alpha (Homo sapiens) (UniProt P17612).

ΔTm	SMILES
1 °C	CCOc1cc(/C=C(\C#N)C(N)=O)cc(CSc2ccccc2)c1O
0.3 °C	Ic1cccc(CSc2nnc(-c3ccncc3)o2)c1
0.5 °C	CC(C)c1cc(/C=C(\C#N)C(=O)NCCCc2ccccc2)cc(C(C)C)c1O

Each compound was assayed against Serine/threonine-protein kinase RIO2 (Homo sapiens) (UniProt Q9BVS4).

ΔTm	SMILES
0.1 °C	CCOc1cc(/C=C(\C#N)C(N)=O)cc(CSc2ccccc2)c1O
1.6 °C	Ic1cccc(CSc2nnc(-c3ccncc3)o2)c1
-0.5 °C	CC(C)c1cc(/C=C(\C#N)C(=O)NCCCc2ccccc2)cc(C(C)C)c1O

The compounds below were run against Ribosomal protein S6 kinase alpha-3 (Homo sapiens) (UniProt P51812).
Sequence of Ribosomal protein S6 kinase alpha-3 (Homo sapiens) (P51812 whole entry): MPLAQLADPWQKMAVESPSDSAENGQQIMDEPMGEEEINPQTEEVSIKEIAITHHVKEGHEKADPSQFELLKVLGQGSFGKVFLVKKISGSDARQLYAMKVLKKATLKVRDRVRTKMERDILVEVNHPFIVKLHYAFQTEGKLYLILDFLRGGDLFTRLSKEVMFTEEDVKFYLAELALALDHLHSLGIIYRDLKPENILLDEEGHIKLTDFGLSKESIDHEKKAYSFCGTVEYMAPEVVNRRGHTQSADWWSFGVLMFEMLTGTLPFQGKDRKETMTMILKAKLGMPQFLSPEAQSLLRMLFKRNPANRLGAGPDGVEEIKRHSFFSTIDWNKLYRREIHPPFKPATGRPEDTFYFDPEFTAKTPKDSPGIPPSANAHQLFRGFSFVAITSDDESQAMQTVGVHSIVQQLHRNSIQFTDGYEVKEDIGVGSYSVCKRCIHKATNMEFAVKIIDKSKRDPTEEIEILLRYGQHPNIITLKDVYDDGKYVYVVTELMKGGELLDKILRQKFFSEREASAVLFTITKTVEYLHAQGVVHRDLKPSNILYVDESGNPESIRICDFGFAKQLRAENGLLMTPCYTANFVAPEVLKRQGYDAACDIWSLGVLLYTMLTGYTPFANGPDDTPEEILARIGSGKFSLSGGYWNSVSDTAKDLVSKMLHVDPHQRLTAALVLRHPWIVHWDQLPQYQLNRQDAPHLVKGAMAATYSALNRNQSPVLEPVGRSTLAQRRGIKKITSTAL

ΔTm	SMILES
2.1 °C	CCOc1cc(/C=C(\C#N)C(N)=O)cc(CSc2ccccc2)c1O
-0.6 °C	Ic1cccc(CSc2nnc(-c3ccncc3)o2)c1
1 °C	CC(C)c1cc(/C=C(\C#N)C(=O)NCCCc2ccccc2)cc(C(C)C)c1O

Each compound was assayed against STE20-like serine/threonine-protein kinase (Homo sapiens) (UniProt Q9H2G2).
Sequence of STE20-like serine/threonine-protein kinase (Homo sapiens) (Q9H2G2 whole entry, looked up): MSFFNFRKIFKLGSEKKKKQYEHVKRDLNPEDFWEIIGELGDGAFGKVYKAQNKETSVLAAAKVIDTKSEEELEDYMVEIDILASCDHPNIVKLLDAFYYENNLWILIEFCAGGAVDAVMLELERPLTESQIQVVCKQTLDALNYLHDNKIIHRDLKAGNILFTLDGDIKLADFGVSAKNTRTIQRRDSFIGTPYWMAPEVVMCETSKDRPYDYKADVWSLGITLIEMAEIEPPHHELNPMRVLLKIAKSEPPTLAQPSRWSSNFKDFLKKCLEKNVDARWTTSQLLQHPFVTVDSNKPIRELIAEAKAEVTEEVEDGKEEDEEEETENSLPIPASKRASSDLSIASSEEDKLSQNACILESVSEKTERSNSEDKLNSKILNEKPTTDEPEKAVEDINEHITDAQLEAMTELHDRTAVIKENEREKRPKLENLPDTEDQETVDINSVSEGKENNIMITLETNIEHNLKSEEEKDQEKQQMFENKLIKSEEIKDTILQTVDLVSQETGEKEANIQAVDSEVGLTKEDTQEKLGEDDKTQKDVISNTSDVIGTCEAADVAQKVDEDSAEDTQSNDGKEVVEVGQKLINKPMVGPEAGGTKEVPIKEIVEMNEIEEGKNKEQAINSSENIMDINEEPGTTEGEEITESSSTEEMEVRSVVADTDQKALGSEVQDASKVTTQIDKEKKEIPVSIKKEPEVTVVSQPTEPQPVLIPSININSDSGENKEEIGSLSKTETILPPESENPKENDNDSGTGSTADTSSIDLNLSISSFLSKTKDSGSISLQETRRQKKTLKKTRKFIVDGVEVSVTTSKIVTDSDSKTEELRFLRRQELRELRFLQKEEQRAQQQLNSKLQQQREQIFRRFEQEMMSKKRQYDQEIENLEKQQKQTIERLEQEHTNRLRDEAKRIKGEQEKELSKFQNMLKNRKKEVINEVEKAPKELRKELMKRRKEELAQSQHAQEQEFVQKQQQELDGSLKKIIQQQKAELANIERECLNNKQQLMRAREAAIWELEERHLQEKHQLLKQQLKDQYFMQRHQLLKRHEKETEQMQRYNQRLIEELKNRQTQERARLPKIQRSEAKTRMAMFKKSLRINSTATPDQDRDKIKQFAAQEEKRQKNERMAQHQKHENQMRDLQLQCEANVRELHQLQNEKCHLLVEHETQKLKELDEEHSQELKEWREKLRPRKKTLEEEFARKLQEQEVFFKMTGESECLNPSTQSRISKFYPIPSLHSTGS

ΔTm	SMILES
0.5 °C	CCOc1cc(/C=C(\C#N)C(N)=O)cc(CSc2ccccc2)c1O
-0.4 °C	Ic1cccc(CSc2nnc(-c3ccncc3)o2)c1
1.2 °C	CC(C)c1cc(/C=C(\C#N)C(=O)NCCCc2ccccc2)cc(C(C)C)c1O

These compounds were tested against TRAF2 and NCK-interacting protein kinase (Homo sapiens) (UniProt Q9UKE5).

ΔTm	SMILES
0.2 °C	CCOc1cc(/C=C(\C#N)C(N)=O)cc(CSc2ccccc2)c1O
-0.3 °C	Ic1cccc(CSc2nnc(-c3ccncc3)o2)c1
0 °C	CC(C)c1cc(/C=C(\C#N)C(=O)NCCCc2ccccc2)cc(C(C)C)c1O

The compounds below were run against T4, Serine/threonine-protein kinase VRK3 (Homo sapiens) (UniProt Q8IV63).
T4 sequence (whole entry): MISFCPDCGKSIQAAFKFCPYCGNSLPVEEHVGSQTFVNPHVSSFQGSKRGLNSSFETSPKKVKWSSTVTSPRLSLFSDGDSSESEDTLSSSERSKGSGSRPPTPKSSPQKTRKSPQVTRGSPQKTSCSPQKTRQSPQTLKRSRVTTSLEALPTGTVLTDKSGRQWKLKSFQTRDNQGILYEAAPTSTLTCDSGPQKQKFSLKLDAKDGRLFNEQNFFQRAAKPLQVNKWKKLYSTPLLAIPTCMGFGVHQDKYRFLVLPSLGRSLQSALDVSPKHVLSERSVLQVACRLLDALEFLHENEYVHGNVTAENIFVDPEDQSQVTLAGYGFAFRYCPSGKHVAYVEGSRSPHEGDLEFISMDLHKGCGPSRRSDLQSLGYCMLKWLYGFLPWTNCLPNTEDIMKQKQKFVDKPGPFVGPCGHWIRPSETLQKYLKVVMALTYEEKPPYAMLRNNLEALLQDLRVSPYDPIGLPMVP

ΔTm	SMILES
-0.6 °C	CCOc1cc(/C=C(\C#N)C(N)=O)cc(CSc2ccccc2)c1O
-0.1 °C	Ic1cccc(CSc2nnc(-c3ccncc3)o2)c1
0.8 °C	CC(C)c1cc(/C=C(\C#N)C(=O)NCCCc2ccccc2)cc(C(C)C)c1O
